# Assay results from PubChem BioAssay (NCI).
#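 Step 1: Grow cells in 96-well plates. Step 2: Expose to compound for 48 hours at 5 concentrations. Step 3: Interpolate endpoints linearly; if unreached, use highest concentration. Here, GI50 denotes the concentration required for 50% inhibition of growth. Definition used: TGI = concentration required for complete inhibition of growth.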
# How the values were obtained:
# Experiment in all cases: NCI-60 cell line screen, 48 h
# [1] = system: IGROV1 ovarian
# [2] = system: HOP-62 NSCLC
# [3] = system: MOLT-4 leukemia
# [4] = system: HT29 colon
# [5] = system: RXF 393 renal
# [6] = system: T-47D breast
# [7] = system: PC-3 prostate
# [8] = system: COLO 205 colon
# [9] = system: SF-295 CNS
# [10] = system: SW-620 colon
# [11] = system: SK-MEL-2 melanoma
# [12] = system: UACC-62 melanoma
# [13] = system: SF-268 CNS
# [14] = system: HL-60(TB) leukemia
# [15] = system: MCF7 breast
# [16] = system: SF-539 CNS
# [17] = system: RPMI-8226 leukemia
# [18] = system: MDA-MB-231 breast
# [19] = system: SK-MEL-5 melanoma
# [20] = system: UACC-257 melanoma
# [21] = system: OVCAR-8 ovarian
# [22] = system: SK-OV-3 ovarian
# [23] = system: HCT-116 colon
# [24] = system: MDA-MB-435
# [25] = system: NCI-H460 lung
# [26] = system: BT-549 breast
# [27] = system: HCC-2998 colon
# [28] = system: OVCAR-4 ovarian
# [29] = system: SK-MEL-28 melanoma
# [30] = system: UO-31 renal
# [31] = system: OVCAR-5 ovarian
# [32] = system: SNB-19 CNS
# [33] = system: OVCAR-3 ovarian
# [34] = system: SN12C renal
# [35] = system: LOX IMVI melanoma
# [36] = system: HCT-15 colon
# [37] = system: M14 melanoma
# [38] = system: A498 renal
# [39] = system: ACHN renal
# [40] = system: K-562 leukemia
# [41] = system: HOP-92 NSCLC
# [42] = system: MALME-3M melanoma
# [43] = system: TK-10 renal
# [44] = system: NCI/ADR-RES ovarian
# [45] = system: KM12 colon
# [46] = system: HS 578T breast
# [47] = system: 786-0 renal
# [48] = system: CAKI-1 renal
# [49] = system: EKVX NSCLC
# [50] = system: DU-145 prostate
# [51] = system: NCI-H226 lung
# [52] = system: CCRF-CEM leukemia
# [53] = system: U251 CNS
# [54] = system: A549 NSCLC
# [55] = system: NCI-H522 lung
# [56] = system: NCI-H23 lung
# [57] = system: SR leukemia
# [58] = system: SNB-75 CNS
smiles,measurement,setting,value
N#CSc1c[nH]c2ccc(/C=C/C(=O)/C=C(/C=C/c3ccc4[nH]cc(SC#N)c4c3)OB(F)F)cc12,GI50,[1],0.352 µM
same,TGI,[1],1.37 µM
same,GI50,[2],3.86 µM
same,TGI,[2],38.9 µM
same,GI50,[3],0.306 µM
same,TGI,[3],1.62 µM
same,GI50,[4],0.394 µM
same,TGI,[4],2.38 µM
same,GI50,[5],0.24 µM
same,TGI,[5],0.852 µM
same,GI50,[6],0.791 µM
same,TGI,[6],8.6 µM
same,GI50,[7],0.241 µM
same,TGI,[7],1.95 µM
same,GI50,[8],0.652 µM
same,TGI,[8],3.52 µM
same,GI50,[9],3.47 µM
same,TGI,[9],14.4 µM
same,GI50,[10],0.333 µM
same,TGI,[10],1.16 µM
same,GI50,[11],2.92 µM
same,TGI,[11],8.04 µM
same,GI50,[12],1.2 µM
same,TGI,[12],2.85 µM
same,GI50,[13],1.12 µM
same,TGI,[13],2.8 µM
same,GI50,[14],0.949 µM
same,TGI,[14],4.18 µM
same,GI50,[15],0.458 µM
same,TGI,[15],3.5 µM
same,GI50,[16],1.86 µM
same,TGI,[16],6.17 µM
same,GI50,[17],0.522 µM
same,GI50,[18],0.917 µM
same,TGI,[18],2.34 µM
same,GI50,[19],1.37 µM
same,TGI,[19],2.93 µM
same,GI50,[20],2.82 µM
same,TGI,[20],33.6 µM
same,GI50,[21],0.577 µM
same,TGI,[21],> 100 µM
same,GI50,[22],25.3 µM
same,TGI,[22],88.3 µM
same,GI50,[23],0.0887 µM
same,TGI,[23],0.375 µM
same,GI50,[24],1.44 µM
same,TGI,[24],3.25 µM
same,GI50,[25],0.763 µM
same,TGI,[25],2.37 µM
same,GI50,[26],0.835 µM
same,TGI,[26],3.43 µM
same,GI50,[27],3.72 µM
same,TGI,[27],19.7 µM
same,GI50,[28],0.344 µM
same,TGI,[28],3.11 µM
same,GI50,[29],0.498 µM
same,TGI,[29],2.29 µM
same,GI50,[30],0.212 µM
same,TGI,[30],0.808 µM
same,GI50,[31],2.24 µM
same,TGI,[31],8.68 µM
same,GI50,[32],3.32 µM
same,TGI,[32],14.7 µM
same,GI50,[33],0.264 µM
same,TGI,[33],0.762 µM
same,GI50,[34],0.442 µM
same,TGI,[34],3.13 µM
same,GI50,[35],0.202 µM
same,TGI,[35],0.571 µM
same,GI50,[36],0.249 µM
same,TGI,[36],1.09 µM
same,GI50,[37],0.374 µM
same,TGI,[37],1.68 µM
same,GI50,[38],3.24 µM
same,TGI,[38],12.3 µM
same,GI50,[39],0.208 µM
same,TGI,[39],0.471 µM
same,GI50,[40],0.281 µM
same,TGI,[40],> 100 µM
same,GI50,[41],0.321 µM
same,TGI,[41],1.5 µM
same,GI50,[42],0.261 µM
same,TGI,[42],0.845 µM
same,GI50,[43],0.698 µM
same,TGI,[43],14.8 µM
same,GI50,[44],1.74 µM
same,TGI,[44],> 100 µM
same,GI50,[45],1.02 µM
same,TGI,[45],4.82 µM
same,GI50,[46],1.36 µM
same,TGI,[46],> 100 µM
same,GI50,[47],0.343 µM
same,TGI,[47],3.44 µM
same,GI50,[48],0.531 µM
same,TGI,[48],4.05 µM
same,GI50,[49],0.535 µM
same,TGI,[49],3.53 µM
same,GI50,[50],0.694 µM
same,TGI,[50],2.55 µM
same,GI50,[51],2.18 µM
same,TGI,[51],5.62 µM
same,GI50,[52],0.267 µM
same,TGI,[52],4.4 µM
same,GI50,[53],1.04 µM
same,TGI,[53],2.99 µM
same,GI50,[54],3.31 µM
same,TGI,[54],17.6 µM
same,GI50,[55],0.212 µM
same,TGI,[55],0.653 µM
same,GI50,[56],0.947 µM
same,TGI,[56],3.86 µM
same,GI50,[57],0.128 µM
same,GI50,[58],2.38 µM
same,TGI,[58],11.1 µM
N#CC(C#N)N=Nc1ccc(Br)cc1,GI50,[1],3.68 µM
same,TGI,[1],> 73.6 µM
same,GI50,[2],27.1 µM
same,TGI,[2],> 100 µM
same,GI50,[3],2.72 µM
same,TGI,[3],> 66.2 µM
same,GI50,[4],3.39 µM
same,TGI,[4],> 38.5 µM
same,GI50,[5],3.63 µM
same,TGI,[5],14 µM
same,GI50,[6],0.839 µM
same,TGI,[6],6.75 µM
same,GI50,[7],2.42 µM
same,TGI,[7],17.7 µM
same,GI50,[8],1.43 µM
same,TGI,[8],3.25 µM
same,GI50,[9],30.3 µM
same,TGI,[9],> 100 µM
same,GI50,[10],3.01 µM
same,TGI,[10],15.8 µM
same,GI50,[11],8.97 µM
same,TGI,[11],36.1 µM
same,GI50,[12],1.91 µM
same,TGI,[12],10.9 µM
same,GI50,[13],13.1 µM
same,TGI,[13],> 100 µM
same,GI50,[14],1.7 µM
same,TGI,[14],4.38 µM
same,GI50,[15],2.74 µM
same,TGI,[15],> 51.7 µM
same,GI50,[16],3.57 µM
same,TGI,[16],18.3 µM
same,GI50,[17],1.52 µM
same,TGI,[17],8.03 µM
same,GI50,[18],1.69 µM
same,TGI,[18],7.04 µM
same,GI50,[19],5.13 µM
same,TGI,[19],34.1 µM
same,GI50,[20],2.12 µM
same,TGI,[20],7.54 µM
same,GI50,[21],3.67 µM
same,TGI,[21],33.4 µM
same,GI50,[22],22.3 µM
same,TGI,[22],> 100 µM
same,GI50,[23],2.44 µM
same,TGI,[23],9.44 µM
same,GI50,[24],4.19 µM
same,TGI,[24],20 µM
same,GI50,[25],11.5 µM
same,TGI,[25],> 100 µM
same,GI50,[26],4.18 µM
same,TGI,[26],31.5 µM
same,GI50,[27],8.04 µM
same,TGI,[27],33.1 µM
same,GI50,[28],2 µM
same,TGI,[28],37.9 µM
same,GI50,[29],3.41 µM
same,TGI,[29],26.5 µM
same,GI50,[30],1.26 µM
same,TGI,[30],7.05 µM
same,GI50,[31],4.8 µM
same,TGI,[31],> 72.6 µM
same,GI50,[32],27.5 µM
same,TGI,[32],> 100 µM
same,GI50,[33],2.5 µM
same,TGI,[33],15.4 µM
same,GI50,[34],2.64 µM
same,TGI,[34],9.51 µM
same,GI50,[35],3.75 µM
same,TGI,[35],16.5 µM
same,GI50,[36],3.22 µM
same,TGI,[36],15.9 µM
same,GI50,[37],3.33 µM
same,TGI,[37],16.8 µM
same,GI50,[38],13.3 µM
same,TGI,[38],46.1 µM
same,GI50,[39],1.99 µM
same,TGI,[39],7.89 µM
same,GI50,[40],3.02 µM
same,TGI,[40],> 100 µM
same,GI50,[41],0.249 µM
same,TGI,[41],1.84 µM
same,GI50,[42],1.35 µM
same,TGI,[42],10.4 µM
same,GI50,[43],4.04 µM
same,TGI,[43],43.2 µM
same,GI50,[44],4.73 µM
same,TGI,[44],> 100 µM
same,GI50,[45],9.65 µM
same,TGI,[45],> 100 µM
same,GI50,[46],13.4 µM
same,TGI,[46],> 73.8 µM
same,GI50,[47],3.79 µM
same,TGI,[47],14.1 µM
same,GI50,[48],2.05 µM
same,TGI,[48],12.1 µM
same,GI50,[49],6 µM
same,TGI,[49],> 83 µM
same,GI50,[50],4.02 µM
same,TGI,[50],> 51.1 µM
same,GI50,[51],4.63 µM
same,TGI,[51],27 µM
same,GI50,[52],1.53 µM
same,TGI,[52],10.7 µM
same,GI50,[53],16.2 µM
same,TGI,[53],> 100 µM
same,GI50,[54],47.9 µM
same,TGI,[54],> 100 µM
same,GI50,[55],0.543 µM
same,TGI,[55],3.41 µM
same,GI50,[56],2.42 µM
same,TGI,[56],26.7 µM
same,GI50,[57],3.22 µM
same,TGI,[57],> 49.8 µM
same,GI50,[58],13.7 µM
same,TGI,[58],> 100 µM
